Measured values published in ChEMBL document CHEMBL3217517, “Alkynylation of N-(3-iodopyridin-2-yl)sulfonamide under Pd/CCu catalysis: a direct one pot synthesis of 7-azaindoles and their pharmacological evaluation as potential inhibitors of sirtuins” (Medchemcomm, 2011).

How the values were obtained:
[1] = target: NAD-dependent histone deacetylase SIR2 (Saccharomyces cerevisiae S288c) (UniProt P06700); experiment: Inhibition of Ura3 gene expressing yeast NAD-dependent HDAC activity of Sir2 assessed as growth inhibition after 24 to 48 hrs by reporter silencing assay in presence of 5-fluoro orotic acid
NAD-dependent histone deacetylase SIR2 (Saccharomyces cerevisiae S288c), sequence (P06700 whole entry): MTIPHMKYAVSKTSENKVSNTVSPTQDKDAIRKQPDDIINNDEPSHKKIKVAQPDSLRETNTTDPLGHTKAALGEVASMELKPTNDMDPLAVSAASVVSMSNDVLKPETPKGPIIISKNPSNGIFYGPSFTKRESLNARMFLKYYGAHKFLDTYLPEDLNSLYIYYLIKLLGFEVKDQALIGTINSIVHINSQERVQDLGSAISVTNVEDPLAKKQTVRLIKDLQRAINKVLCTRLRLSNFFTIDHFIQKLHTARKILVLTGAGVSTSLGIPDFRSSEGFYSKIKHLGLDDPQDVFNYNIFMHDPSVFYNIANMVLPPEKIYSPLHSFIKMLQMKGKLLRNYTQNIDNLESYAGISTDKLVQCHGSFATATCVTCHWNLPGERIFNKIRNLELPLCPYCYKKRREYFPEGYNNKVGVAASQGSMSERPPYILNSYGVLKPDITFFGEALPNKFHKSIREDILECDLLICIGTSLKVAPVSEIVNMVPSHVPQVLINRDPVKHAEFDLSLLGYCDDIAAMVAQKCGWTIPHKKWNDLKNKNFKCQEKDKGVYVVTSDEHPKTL

[2] = target: NAD-dependent histone deacetylase SIR2 (Saccharomyces cerevisiae S288c, UniProt P06700); experiment: Inhibition of Ura3 gene expressing yeast NAD-dependent HDAC activity of Sir2 assessed as growth inhibition after 24 to 48 hrs by reporter silencing assay in absence of 5-fluoro orotic acid
NAD-dependent histone deacetylase SIR2, sequence (P06700 whole entry): as above

[3] = target: NAD-dependent histone deacetylase SIR2 (Saccharomyces cerevisiae S288c) (UniProt P06700); experiment: Inhibition of Ura3 gene expressing yeast NAD-dependent HDAC activity of Sir2 assessed as growth inhibition at 50 uM after 24 to 48 hrs by reporter silencing assay in presence of 5-fluoro orotic acid

Row | Compound | inhibition [1] | Activity [2] | inhibition [3] [%]
1 | CS(=O)(=O)n1c(-c2ccccc2)cc2cccnc21 | Dose-dependent effect | Non-toxic | 40
2 | CCCCCc1cc2cccnc2n1S(=O)(=O)c1ccccc1 |  |  | 10
3 | CC(O)c1cc2cccnc2n1S(=O)(=O)c1ccccc1 (configuration not stated) |  |  | 30
4 | O=S(=O)(c1ccccc1)n1c(CO)cc2cccnc21 |  | Non-toxic | 
5 | O=S(=O)(c1ccccc1)n1c(CCO)cc2cccnc21 |  |  | 15
6 | CC(C)(C)c1cc2cccnc2n1S(=O)(=O)c1ccccc1 |  | Non-toxic | 42
7 | O=S(=O)(c1ccccc1)n1c(CCCCl)cc2cccnc21 |  |  | 12
8 | N#CCCCc1cc2cccnc2n1S(=O)(=O)c1ccccc1 |  |  | 10
9 | O=S(=O)(c1ccccc1)n1c(-c2ccccc2)cc2cccnc21 |  |  | 37
